Data as given in EPA's CvTdb concentration-time database.

Columns and labels:
Rat [1] = experiment: concentration in plasma after dosing; settings: dosed: 2-Hydroxy-4-methoxybenzophenone, 500 mg/kg, oral, Male, F344
Mouse [2] = experiment: concentration in plasma after dosing; settings: 2 h; dosed: 2-Hydroxy-4-methoxybenzophenone; 50 mg/kg; iv; Male; B6C3F1
Mouse [3] = experiment: concentration in plasma after dosing; settings: 3 h; dosed: 2-Hydroxy-4-methoxybenzophenone; 50 mg/kg; iv; Female; B6C3F1
Mouse [4] = experiment: concentration in plasma after dosing; settings: 3 h; dosed: 2-Hydroxy-4-methoxybenzophenone; 250 mg/kg; oral; Male; B6C3F1
Rat [5] = experiment: concentration in plasma after dosing; settings: 6 h; dosed: 2-Hydroxy-4-methoxybenzophenone; 500 mg/kg; oral; Male; F344
Mouse [6] = experiment: concentration in plasma after dosing; settings: dosed: 2-Hydroxy-4-methoxybenzophenone, B6C3F1
Rat [7] = experiment: concentration in plasma after dosing; settings: 10 min; dosed: Nitrite; 40 mg/kg; oral; Female; F344
Rat [8] = experiment: concentration in kidney after dosing; settings: 48 h; dosed: Perfluorooctanoic acid; 80 mg/kg; oral; Female; Harlan Sprague Dawley
Rat [9] = experiment: concentration in liver after dosing; settings: 6 h; dosed: Fluorotelomer alcohol 8+2; 80 mg/kg; oral; Female; Harlan Sprague Dawley
Rat [10] = experiment: concentration in plasma after dosing; settings: 192 h; dosed: 678-39-7; 12 mg/kg; iv; Male; F344
Rat [11] = experiment: concentration in plasma after dosing; settings: 5 min; dosed: 678-39-7; 12 mg/kg; iv; Male; F344
Rat [12] = experiment: concentration in kidney after dosing; settings: 24 h; dosed: Perfluorooctanoic acid; 12 mg/kg; oral; Male; Harlan Sprague Dawley
Rat [13] = experiment: concentration in plasma after dosing; settings: dosed: Fluorotelomer alcohol 8+2, 12 mg/kg, oral, Male, Harlan Sprague Dawley
Rat [14] = experiment: concentration in kidney after dosing; settings: 12 h; dosed: Fluorotelomer alcohol 8+2; 80 mg/kg; oral; Female; Harlan Sprague Dawley
Rat [15] = experiment: concentration in plasma after dosing; settings: dosed: Potassium Perfluorobutane Sulfonate, 4 mg/kg, iv, Male, F344
Rat [16] = experiment: concentration in brain after dosing; settings: 0.5 h; dosed: Potassium Perfluorobutane Sulfonate; 20 mg/kg; oral; Female; Harlan Sprague Dawley
Rat [17] = experiment: concentration in plasma after dosing; settings: dosed: Potassium Perfluorobutane Sulfonate, 4 mg/kg, oral, Male, Harlan Sprague Dawley
Rat [18] = experiment: concentration in plasma after dosing; settings: dosed: Potassium Perfluorobutane Sulfonate, 20 mg/kg, oral, Male, Harlan Sprague Dawley
Rat [19] = experiment: concentration in plasma after dosing; settings: dosed: Potassium Perfluorobutane Sulfonate, 4 mg/kg, oral, Male, Harlan Sprague Dawley; remark: listed apart in the source
Rat [20] = experiment: concentration in plasma after dosing; settings: dosed: Potassium Perfluorobutane Sulfonate, 4 mg/kg, iv, Male, F344; remark: listed apart in the source
Rat [21] = experiment: concentration in liver after dosing; settings: 0.5 h; dosed: Potassium Perfluorobutane Sulfonate; 20 mg/kg; oral; Female; Harlan Sprague Dawley
Rat [22] = experiment: concentration in kidney after dosing; settings: 1 h; dosed: Potassium Perfluorobutane Sulfonate; 20 mg/kg; oral; Male; Harlan Sprague Dawley
Rat [23] = experiment: concentration in liver after dosing; settings: 3 h; dosed: Potassium Perfluorobutane Sulfonate; 20 mg/kg; oral; Female; Harlan Sprague Dawley
Rat [24] = experiment: concentration in liver after dosing; settings: 1 h; dosed: Potassium Perfluorobutane Sulfonate; 20 mg/kg; oral; Male; Harlan Sprague Dawley
Rat [25] = experiment: concentration in plasma after dosing; settings: dosed: Potassium Perfluorobutane Sulfonate, 4 mg/kg, oral, Male, Harlan Sprague Dawley; remark: listed apart in the source
rat [26] = experiment: concentration in plasma after dosing; settings: dosed: benzo[a]pyrene, 100 ug/m^3, inhalation, duration: 4 hr, F344
rat [27] = experiment: amount in expired air after dosing (umol); settings: dosed: methanol, 100 mg/kg, iv, male, CDF(F344)/CrlBR

COc1ccc(C(=O)c2ccccc2)c(O)c1 [2-Hydroxy-4-methoxybenzophenone]
Rat [1]
Settings | concentration in plasma [µg/mL]
10 h | 0.0804
10 min | 0.113

Settings | concentration in plasma [µg/mL]
Mouse [2] | 0.267
Mouse [3] | 0.149
Mouse [4] | 0.0451
Rat [5] | 0.189

concentration in plasma [µg/mL], Mouse [6]
Settings | 0.25 h | 2 h | 2.5 min | 3 h | 10 min
50 mg/kg, iv, Female | 4.57 | 0.259 | – | 0.193 | 9.66
50 mg/kg, iv, Male | 5.62 | 0.279 | – | 0.235 | 11.5
100 mg/kg, oral, Female | 0.103 | 0.0201 | 0.00658 | 0.0118 | 0.0573
100 mg/kg, oral, Male | 0.0622 | 0.0365 | 0.0134 | 0.0193 | 0.0415
250 mg/kg, oral, Female | 0.26 | 0.0458 | 0.022 | 0.264 | 0.165
250 mg/kg, oral, Male | 0.519 | 0.0548 | 0.0157 | 0.0419 | 0.0695
500 mg/kg, oral, Female | 2.95 | 11.5 | – | – | 0.526
500 mg/kg, oral, Male | 0.238 | 0.0731 | – | – | 0.176

O=N[O-] [Nitrite]
Settings | concentration in plasma [µg/mL]
Rat [7] | 8.5

O=C(O)C(F)(F)C(F)(F)C(F)(F)C(F)(F)C(F)(F)C(F)(F)C(F)(F)F [Perfluorooctanoic acid]
Settings | concentration in kidney [ng/g] | concentration in liver [ng/g] | concentration in plasma [ng/mL]
Rat [8] | 703 | – | –
Rat [9] | – | 1600 | –
Rat [10] | – | – | 307
Rat [11] | – | – | 35.2
Rat [12] | 29700 | – | –
Rat [14] | 711 | – | –

Rat [13]
Settings | concentration in plasma [ng/mL]
48 h | 657
192 h | 424

O=S(=O)([O-])C(F)(F)C(F)(F)C(F)(F)C(F)(F)F.[K+] [Potassium Perfluorobutane Sulfonate]
Settings | concentration in plasma [ng/mL]
Rat [15], 3 h | 476
Rat [15], 5 min | 29200
Rat [17], 0.5 h | 6060
Rat [17], 9 h | 5230
Rat [18], 5 min | 1130
Rat [18], 9 h | 13200
Rat [19], 0.5 h | 7030
Rat [19], 9 h | 5080
Rat [20], 0.25 h | 15900
Rat [20], 6 h | 47.5
Rat [25], 1 h | 13800
Rat [25], 24 h | 245

Settings | concentration in brain [ng/g] | concentration in kidney [ng/g] | concentration in liver [ng/g]
Rat [16] | 518 | – | –
Rat [21] | – | – | 51300
Rat [22] | – | 22700 | –
Rat [23] | – | – | 8410
Rat [24] | – | – | 110000

c1ccc2c(c1)cc1ccc3cccc4ccc2c1c34 [benzo[a]pyrene]
concentration in plasma [µg/mL], rat [26]
Settings | 0.05 h | 1 h | 2 h | 4 h
female | 0.01 | 0.023 | 0.011 | 0.00107
male | 0.0149 | 0.018 | 0.012 | 0.002

CO [methanol]
rat [27]
Settings | amount in expired air
0.5482 h | 3.95
1.003 h | 4.75
1.458 h | 5.56
1.963 h | 7.78
2.999 h | 10.5
4.439 h | 14.9
5.98 h | 17.6
8.026 h | 18.8
10.01 h | 19.4
12.02 h | 20.1
15.07 h | 19.5
